Assay results: patent publication US6352958B1, “Cycloimido-substituted benzofused heterocyclic herbicides” (FMC Corporation, priority 1997, dated 2002)

Legend:
Format in all cases: in vivo
[1] = system: morningglory (Ipomea lacunosa or Ipomea hederacea); test: Preemergence herbicidal activity, morningglory; conditions: Rate of Application 0.3 Kg/Ha, examined after 12-17 days
[2] = system: green foxtail (Setaria viridis); test: Preemergence herbicidal activity, green foxtail; conditions: Rate of Application 0.3 Kg/Ha, examined after 12-17 days
[3] = system: Johnsongrass (Sorghum halepense); test: Postemergence herbicidal activity, johnsongrass; conditions: rate of application 0.3 Kg/Ha, rated after 12-17 days
[4] = system: wheat (Triticum aestivum var. Lew); test: Postemergence herbicidal activity, wheat; conditions: rate of application 0.3 Kg/Ha, rated after 12-17 days
[5] = system: morningglory (Ipomea lacunosa or Ipomea hederacea); test: Postemergence herbicidal activity, morningglory; conditions: rate of application 0.3 Kg/Ha, rated after 12-17 days
[6] = system: velvetleaf (Abutilon theophrasti); test: Postemergence herbicidal activity, velvetleaf; conditions: rate of application 0.3 Kg/Ha, rated after 12-17 days
[7] = system: blackgrass (Aloepecurus myosuroides); test: Postemergence herbicidal activity, blackgrass; conditions: rate of application 0.3 Kg/Ha, rated after 12-17 days
[8] = system: field corn (Zea mays var. Pioneer 3732); test: Preemergence herbicidal activity, corn; conditions: Rate of Application 0.3 Kg/Ha, examined after 12-17 days
[9] = system: wheat (Triticum aestivum var. Lew); test: Preemergence herbicidal activity, wheat; conditions: Rate of Application 0.3 Kg/Ha, examined after 12-17 days
[10] = system: soybean (Glycine max var. Winchester); test: Postemergence herbicidal activity, soybean; conditions: rate of application 0.3 Kg/Ha, rated after 12-17 days
[11] = system: common cocklebur (Xanthium strumarium L.); test: Preemergence herbicidal activity, cocklebur; conditions: Rate of Application 0.3 Kg/Ha, examined after 12-17 days
[12] = system: Johnsongrass (Sorghum halepense); test: Preemergence herbicidal activity, johnsongrass; conditions: Rate of Application 0.3 Kg/Ha, examined after 12-17 days
[13] = system: common chickweed (Stellaria media); test: Preemergence herbicidal activity, chickweed; conditions: Rate of Application 0.3 Kg/Ha, examined after 12-17 days
[14] = system: field corn (Zea mays var. Pioneer 3732); test: Postemergence herbicidal activity, corn; conditions: rate of application 0.3 Kg/Ha, rated after 12-17 days
[15] = system: soybean (Glycine max var. Winchester); test: Preemergence herbicidal activity, soybean; conditions: Rate of Application 0.3 Kg/Ha, examined after 12-17 days
[16] = system: green foxtail (Setaria viridis); test: Postemergence herbicidal activity, green foxtail; conditions: rate of application 0.3 Kg/Ha, rated after 12-17 days
[17] = system: common cocklebur (Xanthium strumarium L.); test: Postemergence herbicidal activity, cocklebur; conditions: rate of application 0.3 Kg/Ha, rated after 12-17 days
[18] = system: blackgrass (Aloepecurus myosuroides); test: Preemergence herbicidal activity, blackgrass; conditions: Rate of Application 0.3 Kg/Ha, examined after 12-17 days
[19] = system: velvetleaf (Abutilon theophrasti); test: Preemergence herbicidal activity, velvetleaf; conditions: Rate of Application 0.3 Kg/Ha, examined after 12-17 days
[20] = system: common chickweed (Stellaria media); test: Postemergence herbicidal activity, chickweed; conditions: rate of application 0.3 Kg/Ha, rated after 12-17 days

Row | Compound | PREEMERGENCE HERBICIDAL ACTIVITY (% CONTROL) IPOSS [1] | PREEMERGENCE HERBICIDAL ACTIVITY (% CONTROL) SETVI [2] | Postemergence herbicidal activity (% control) SORHA [3] | Postemergence herbicidal activity (% control) WHT [4] | Postemergence herbicidal activity (% control) IPOSS [5] | Postemergence herbicidal activity (% control) ABUTH [6] | Postemergence herbicidal activity (% control) ALOMY [7] | PREEMERGENCE HERBICIDAL ACTIVITY (% CONTROL) CRN [8] | PREEMERGENCE HERBICIDAL ACTIVITY (% CONTROL) WHT [9] | Postemergence herbicidal activity (% control) SOY [10] | PREEMERGENCE HERBICIDAL ACTIVITY (% CONTROL) XANPE [11] | PREEMERGENCE HERBICIDAL ACTIVITY (% CONTROL) SORHA [12] | PREEMERGENCE HERBICIDAL ACTIVITY (% CONTROL) STEME [13] | Postemergence herbicidal activity (% control) CRN [14] | PREEMERGENCE HERBICIDAL ACTIVITY (% CONTROL) SOY [15] | Postemergence herbicidal activity (% control) SETVI [16] | Postemergence herbicidal activity (% control) XANPE [17] | PREEMERGENCE HERBICIDAL ACTIVITY (% CONTROL) ALOMY [18] | PREEMERGENCE HERBICIDAL ACTIVITY (% CONTROL) ABUTH [19] | Postemergence herbicidal activity (% control) STEME [20]
1 | Cn1c(C(F)(F)F)cc(=O)n(-c2c(F)cc(Cl)c3cc(C(N)=O)oc23)c1=O [Compound 273] | 100% | 100% | 100% | 60% | 100% | 100% | 80% | 90% | 80% | 95% | 100% | 100% | 100% | 95% | 100% | 100% | 100% | 90% | 100% | 90%
2 | CNC(=O)c1cc2c(Cl)cc(F)c(-n3c(=O)cc(C(F)(F)F)n(C)c3=O)c2o1 [Compound 274] | 100% | 100% | 100% | 60% | 100% | 100% | 90% | 90% | 100% | 95% | 100% | 100% | 90% | 95% | 100% | 100% | 100% | 95% | 100% | 90%
3 | Cn1c(C(F)(F)F)cc(=O)n(-c2c(F)cc(Cl)c3[nH]c(C(F)(F)Cl)nc23)c1=O [Compound 366] | 20% | 50% | 50% | 30% | 80% | 95% | 30% | 0% | 10% | 70% | 10% | 40% | 0% | 80% | 10% | 50% | 100% | 0% | 70% | 30%
4 | COC(=O)CCc1cc2c(Cl)cc(F)c(-n3c(=O)cc(C(F)(F)F)n(C)c3=O)c2o1 [Compound 263] | 100% | 100% | 70% | 80% | 100% | 100% | 60% | 65% | 50% | 95% | 95% | 70% | 100% | 90% | 100% | 90% | 100% | 75% | 100% | 100%
5 | CCOC(=O)c1cc2c(-n3c(=O)cc(C(F)(F)F)n(C)c3=O)c(F)cc(Cl)c2n1C [Compound 522] | 100% | 100% | 100% | 45% | 100% | 100% | 50% | 80% | 40% | 90% | 50% | 100% | 100% | 90% | 90% | 100% | 100% | 75% | 100% | 100%
6 | CCOC(=O)c1cc2c(-n3c(=O)cc(C(F)(F)F)n(C)c3=O)c(F)cc(Cl)c2[nH]1 [Compound 493] | 100% | 100% | 100% | 60% | 100% | 100% | 65% | 90% | 70% | 95% | 70% | 100% | 100% | 90% | 80% | 100% | 100% | 75% | 100% | 80%
7 | CC(Cl)c1cc2c(Cl)cc(F)c(-n3c(=O)cc(C(F)(F)F)n(C)c3=O)c2o1 (stereo not shown) [Compound 234] | 100% | 100% | 100% | 100% | 100% | 100% | 100% | 100% | 100% | 100% | 100% | 100% | 100% | 100% | 100% | 100% | 100% | 80% | 100% | 100%
8 | COCc1nc2c(-n3c(=O)cc(C(F)(F)F)n(C)c3=O)c(F)cc(Cl)c2[nH]1 [Compound 370] | 100% | 100% | 100% | 95% | 100% | 100% | 100% | 95% | 100% | 100% | 100% | 100% | 100% | 100% | 100% | 100% | 100% | 90% | 100% | 100%
